Experimental data published in patent US20050090505A1, “Methods of reducing risk of infection from pathogens” (priority 2003, published 2005).
Counter-ions that a name gives are not always drawn. Like-named read-outs stand apart in the source and are kept apart here.

Biological target: T1, airway epithelial sodium currents (sodium channel) (UniProt A0A8I3MKE6+A0A8I3Q679+Q95165)
T1 sequence (A0A8I3MKE6 1-646): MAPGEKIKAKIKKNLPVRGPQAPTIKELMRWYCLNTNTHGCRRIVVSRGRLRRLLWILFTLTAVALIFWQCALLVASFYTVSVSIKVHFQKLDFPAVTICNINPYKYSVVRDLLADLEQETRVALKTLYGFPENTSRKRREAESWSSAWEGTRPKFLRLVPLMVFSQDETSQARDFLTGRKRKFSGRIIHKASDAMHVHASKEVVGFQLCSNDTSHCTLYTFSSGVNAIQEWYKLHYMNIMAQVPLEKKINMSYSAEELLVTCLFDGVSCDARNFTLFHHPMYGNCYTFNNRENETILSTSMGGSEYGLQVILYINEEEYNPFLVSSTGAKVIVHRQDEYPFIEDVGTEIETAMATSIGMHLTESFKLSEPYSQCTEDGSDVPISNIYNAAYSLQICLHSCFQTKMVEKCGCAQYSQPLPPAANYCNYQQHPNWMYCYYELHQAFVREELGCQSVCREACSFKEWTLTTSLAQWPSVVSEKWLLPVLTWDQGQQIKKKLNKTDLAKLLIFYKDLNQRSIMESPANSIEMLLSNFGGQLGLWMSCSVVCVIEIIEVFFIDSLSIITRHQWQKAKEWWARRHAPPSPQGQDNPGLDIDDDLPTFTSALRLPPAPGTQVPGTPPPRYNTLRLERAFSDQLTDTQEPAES
T1 sequence (A0A8I3Q679 1-649): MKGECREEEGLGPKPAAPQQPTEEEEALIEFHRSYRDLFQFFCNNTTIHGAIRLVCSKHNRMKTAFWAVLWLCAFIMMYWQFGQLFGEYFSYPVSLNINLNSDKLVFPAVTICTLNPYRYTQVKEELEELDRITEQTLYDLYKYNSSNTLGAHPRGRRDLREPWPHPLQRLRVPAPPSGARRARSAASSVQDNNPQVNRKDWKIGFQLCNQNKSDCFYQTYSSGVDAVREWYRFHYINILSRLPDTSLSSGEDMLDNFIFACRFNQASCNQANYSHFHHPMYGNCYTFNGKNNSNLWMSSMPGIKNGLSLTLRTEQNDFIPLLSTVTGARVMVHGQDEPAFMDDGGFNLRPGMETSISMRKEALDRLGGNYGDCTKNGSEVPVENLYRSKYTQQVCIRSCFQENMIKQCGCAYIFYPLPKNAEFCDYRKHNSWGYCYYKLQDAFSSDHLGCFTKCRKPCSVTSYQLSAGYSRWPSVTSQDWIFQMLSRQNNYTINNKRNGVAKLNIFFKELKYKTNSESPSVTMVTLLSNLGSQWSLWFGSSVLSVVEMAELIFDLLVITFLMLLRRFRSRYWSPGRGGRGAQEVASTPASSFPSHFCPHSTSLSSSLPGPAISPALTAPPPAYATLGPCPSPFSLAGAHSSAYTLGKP
T1 sequence (Q95165 1-641): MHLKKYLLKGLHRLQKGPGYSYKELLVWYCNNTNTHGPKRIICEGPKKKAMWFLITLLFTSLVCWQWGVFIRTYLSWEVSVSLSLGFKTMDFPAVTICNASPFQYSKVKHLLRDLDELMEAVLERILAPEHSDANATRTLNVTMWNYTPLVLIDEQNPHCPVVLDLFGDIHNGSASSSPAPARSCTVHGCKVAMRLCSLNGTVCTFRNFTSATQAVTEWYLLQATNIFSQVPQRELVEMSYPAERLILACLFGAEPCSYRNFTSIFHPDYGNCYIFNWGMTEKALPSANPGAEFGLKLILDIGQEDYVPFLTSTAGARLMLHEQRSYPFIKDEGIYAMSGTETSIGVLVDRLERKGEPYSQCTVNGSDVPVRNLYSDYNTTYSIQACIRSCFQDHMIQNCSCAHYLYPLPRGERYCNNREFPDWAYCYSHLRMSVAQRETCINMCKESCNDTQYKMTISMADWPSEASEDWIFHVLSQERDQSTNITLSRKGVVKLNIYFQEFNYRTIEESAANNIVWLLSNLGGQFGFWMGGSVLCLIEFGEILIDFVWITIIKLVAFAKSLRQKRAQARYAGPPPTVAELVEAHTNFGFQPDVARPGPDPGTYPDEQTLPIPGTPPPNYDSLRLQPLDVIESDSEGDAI
Test: Sodium channel blocking activity: inhibition of short circuit current (ISC) in airway epithelial monolayers mounted in Ussing chambers
Assay type: cell-based, human, dog, sheep or rodent
Conditions: for Fold Amiloride** (PSA 4022 = 100): relative potency for PSA 4022 = 100 using EC50 from PSA 4022 in same run; for EC50: mean ± spread
Experimental: In Vitro Measure of Sodium Channel Blocking Activity and Reversibility
One assay used to assess mechanism of action and/or potency of the compounds of the present invention involves the determination of lumenal drug inhibition of airway epithelial sodium currents measured under short circuit current (ISC) using airway epithelial monolayers mounted in Ussing chambers. Cells obtained from freshly excised human, dog, sheep or rodent airways are seeded onto porous 0.4 micron Snapwell™ Inserts (CoStar), cultured at air-liquid interface (ALI) conditions in hormonally defined media, and assayed for sodium transport activity (ISC) while bathed in Krebs Bicarbonate Ringer (KBR) in Using chambers. All test drug additions are to the lumenal bath with half-log dose addition protocols (from 1×10^−11 M to 3×10^−5 M), and the cumulative change in ISC (inhibition) recorded. All drugs are prepared in dimethyl sulfoxide as stock solutions at a concentration of 1×10^−2 M and stored at −20° C. Eight preparations are typically run in parallel; two preparations per run incorporate amiloride and/or benzamil as positive controls. After the maximal concentration (5×10^−5 M) is administered, the lumenal bath is exchanged three times with fresh drug-free KBR solution, and the resultant ISC measured after each wash for approximately 5 minutes in duration. Reversibility is defined as the percent return to the baseline value for sodium current after the third wash. All data from the voltage clamps are collected via a computer interface and analyzed off-line.
Dose-effect relationships for all compounds are considered and analyzed by the Prism 3.0 program. IC50 values, maximal effective concentrations, and reversibility are calculated and compared to amiloride and benzamil as positive controls.

[1] = Selected Alaphatic Pyrazinoylguanidines (Formula II)
[2] = Selected Cyclic Pyrazinoylguanidines (Formula III)

Row | Compound | Fold Amiloride** (PSA 4022 = 100) (Alaphatic Pyrazinoylguanidines) | EC50 [1] [µM] | other results
1 | CN(C)C(=O)COc1ccc(CCCCNC(=N)NC(=O)c2nc(Cl)c(N)nc2N)cc1 [compound 16313, 2-(4-{4-[N-(3,5-diamino-6-chloropyrazine-2-carbonyl)guanidino]-butyl}phenoxy)-N,N-dimethylacetamide hydrochloride] |  |  | Fold Amiloride** (PSA 4022 = 100) (Capped Pyrazinoylguanidines): 41 ± 7
2 | N=C(NCCCCc1ccc(OCC(=O)NCC(N)=O)cc1)NC(=O)c1nc(Cl)c(N)nc1N [compound 16314, N-carbamoylmethyl-2-(4-{4-[N′-(3,5-diamino-6-chloropyrazine-2-carbonyl)guanidino]butyl}phenoxy)acetamide] |  |  | Fold Amiloride** (PSA 4022 = 100) (Capped Pyrazinoylguanidines): 41 ± 6
3 | N=C(NCCCCc1ccc(OCC(=O)Nc2ncc[nH]2)cc1)NC(=O)c1nc(Cl)c(N)nc1N [compound 16437, 2-(4-{4-[N′-(3,5-diamino-6-chloropyrazine-2-carbonyl)guanidino]-butyl}phenoxy)-N-(1H-imidazol-2-yl)acetamide dihydrochloride] |  |  | Fold Amiloride** (PSA 4022 = 100) (Capped Pyrazinoylguanidines): 77 ± 53
4 | N=C(NCCCCCCN)NC(=O)c1nc(Cl)c(N)nc1N [compound 18706, N-(6-aminohexyl)-N′-(3,5-diamino-6-chloropyrazine-2-carbonyl)guanidine dihydrochloride] | 4 ± 1 | 0.254 ± 0.118 | 
5 | N=C(N)NCCCCCCCCCNC(=N)NC(=O)c1nc(Cl)c(N)nc1N [compound 19006, N-{9-[N′-(3,5-diamino-6-chloropyrazine-2-carbonyl)guanidino]nonyl}guanidine dihydrochloride] | 11 ± 2 | 0.06 ± 0.015 | 
6 | N=C(N)NCCCCCCCNC(=N)NC(=O)c1nc(Cl)c(N)nc1N [compound 19155, N-{7-[N′-(3,5-diamino-6-chloropyrazine-2-carbonyl)guanidino]heptyl}guanidine dihydrochloride] | 8 ± 7 | 0.081 ± 0.045 | 
7 | N=C(NCCCCCCCCCN)NC(=O)c1nc(Cl)c(N)nc1N [compound 19335, N-(9-aminononyl)-N′-(3,5-diamino-6-chloropyrazine-2-carbonyl)-guanidine dihydrochloride] | 19 ± 7 |  | 
8 | N=C(NCCCCCCCCN)NC(=O)c1nc(Cl)c(N)nc1N [compound 19336, N-(8-aminooctyl)-N′-(3,5-diamino-6-chloropyrazine-2-carbonyl)-guanidine dihydrochloride] | 12 ± 3 | 0.076 ± 0.018 | 
9 | N=C(NCCCCCCCCCCN)NC(=O)c1nc(Cl)c(N)nc1N [compound 19487, N-(10-aminodecyl)-N′-(3,5-diamino-6-chloropyrazine-2-carbonyl)-guanidine dihydrochloride] | 37 ± 1 | 0.025 ± 0.011 | 
10 | N=C(N)NCCCCCCCCNC(=N)NC(=O)c1nc(Cl)c(N)nc1N [compound 19604, N-{8-[N′-(3,5-diamino-6-chloropyrazine-2-carbonyl)guanidino]octyl}-guanidine dihydrochloride] | 63 ± 61 | 0.025 ± 0.027 | 
11 | N=C(N)NCCCCCCCCCCNC(=N)NC(=O)c1nc(Cl)c(N)nc1N [compound 23608, N-{10-[N′-(3,5-diamino-6-chloropyrazine-2-carbonyl)guanidino]-decyl}guanidine dihydrochloride] | 41 ± 29 | 0.017 ± 0.008 | 
12 | N=C(NCCCCCCCCCCCCN)NC(=O)c1nc(Cl)c(N)nc1N [compound 23609, N-(12-aminododecyl)-N′-(3,5-diamino-6-chloropyrazine-2-carbonyl)-guanidine dihydrochloride] | 66 ± 36 | 0.013 ± 0.007 | 
13 | N=C(NCCCCCCCCCCCN)NC(=O)c1nc(Cl)c(N)nc1N [compound 23682, N-(11-aminoundecyl)-N′-(3,5-diamino-6-chloropyrazine-2-carbonyl)guanidine dihydrochloride] | 51 ± 15 | 0.012 ± 0.003 | 
14 | N=C(N)NCCCCCCCCCCCCNC(=N)NC(=O)c1nc(Cl)c(N)nc1N [compound 23683, N-{12-[N′-(3,5-diamino-6-chloropyrazine-2-carbonyl)guanidino]dodecyl)guanidine dihydrochloride] | 68 ± 48 | 0.041 ± 0.068 | 
15 | N=C(N)NCCCCCCCCCCCNC(=N)NC(=O)c1nc(Cl)c(N)nc1N [compound 23991, N-{11-[N′-(3,5-diamino-6-chloropyrazine-2-carbonyl)guanidino]-undecyl}guanidine dihydrochloride] | 20 ± 12 | 0.064 ± 0.077 | 
16 | N=C(NCCCCc1ccc(C[C@@H](N)CC(=O)O)cc1)NC(=O)c1nc(Cl)c(N)nc1N [compound 24407] |  |  | Fold Amiloride** (PSA 4022 = 100) (Capped Pyrazinoylguanidines): 23 ± 4
17 | N=C(NCCCCC1CCN(CCO)CC1)NC(=O)c1nc(Cl)c(N)nc1N [compound 25193, N-(3,5-diamino-6-chloropyrazine-2-carbonyl)-N′-{4-[1-(2-hydroxyethyl)piperidin-4-yl]butyl}guanidine dihydrochloride] |  |  | Fold Amiloride** (PSA 4022 = 100) (Cyclic Pyrazinoylguanidines): 8 ± 3; EC50 [2]: 0.099 ± 0.014 µM
18 | N=C(NCCCCC1CCN(CCCO)CC1)NC(=O)c1nc(Cl)c(N)nc1N [compound 25310, N-(3,5-Diamino-6-chloropyrazine-2-carbonyl)-N′-{4-[1-(3-hydroxypropyl)piperidin-4-yl]butyl}guanidine dihydrochloride] |  |  | Fold Amiloride** (PSA 4022 = 100) (Cyclic Pyrazinoylguanidines): 5 ± 2; EC50 [2]: 0.169 ± 0.047 µM
19 | CC(C)(C)OC(=O)NCCCN1CCC(CCCCNC(N)=NC(=O)c2nc(Cl)c(N)nc2N)CC1 [compound 25452, [3-(4-{4-[N′-(3,5-diamino-6-chloropyrazine-2-carbonyl)guanidino]butyl}piperidin-1-yl)propyl]carbamic acid tert-butyl ester] |  |  | Fold Amiloride** (PSA 4022 = 100) (Cyclic Pyrazinoylguanidines): 8 ± 1; EC50 (Selected Cyclic Pyrazinoylguanidines (Formula III), read-out: EC50): 0.06 ± 0.006 µM
